In brackets after ≈: the same amount, converted by molar mass. Several values for one entry are separate records, joined by “and”; a condition that tells them apart may be missing. Identical values can stand only once.
How the values were obtained:
[1] = cited from earlier work; for LogS(mol/L): SC2-1 dataset (Second Solubility Challenge, tight subset), aqueous solubility; for Class: SC2-1 dataset, aqueous solubility class 0-6
[2] = Saturation shake-flask aqueous solubility, gravimetric determination; settings: for Experimental Class: European Pharmacopoeia solubility class from the experimental solubility; for solubility at 48 h / solubility thermodynamic at 48 h: thermodynamic from solid; for solubility at 48 h: Experimental Log S; for solubility thermodynamic at 48 h: water (saturated aqueous solution)
Description: Excess solid drug was added to a vial to prepare supersaturated aqueous solutions. The vial was placed in a constant temperature mixer (Titan Technology, SD2‐100) at 25 °C and shaken for 48 h at a speed of 500 rpm. […] After equilibration, the solution was centrifugated at room temperature at 8000 rpm, and the supernatant was collected. The concentration of the supernatant was determined using the gravimetric method. A measured volume of the supernatant (e.g. 1 mL) was transferred to a pre‐weighted empty vial, dried in a vacuum oven at 70 °C, and re‐weighed. The difference between the initial and final weights represents the drug content in the saturated solution. Each compound was tested in triplicate to ensure accuracy.

[3] = water, 25 °C, shaken 48 h, triplicate, Log S = base-10 logarithm of moles per liter
[4] = water, 25 °C, averaged over triplicate
[5] = water, 25 °C, single replicate of triplicate

Row | Structure (SMILES) | LogS(mol/L) [1] [mol/L] | Class [1] | also measured
1 | CC(=O)N1CCN(c2ccc(OC[C@H]3CO[C@](Cn4ccnc4)(c4ccc(Cl)cc4Cl)O3)cc2)CC1 (racemic) | -5.47 | 6 (Practically insoluble or insoluble (6)) | 
2 | N[C@@H](Cc1ccc(I)cc1)C(=O)O [4-Iodo-L-phenylalanine] |  |  | Experimental Log S ([2]; averaged over triplicate): -2.7425; Experimental S ([2]; averaged over triplicate): 0.5633; Experimental Log S ([2]; single replicate of triplicate): -2.6716 and -2.9727 and -2.5832; Experimental S ([2]; single replicate of triplicate): 0.6200 and 0.3100 and 0.7600
3 | Cc1cc(=O)oc2cc(O[C@@H]3O[C@H](CO)[C@@H](O)[C@H](O)[C@H]3O)ccc12 [4-methylumbelliferyl β-D-glucoside] |  |  | Experimental Log S ([2]; averaged over triplicate): -1.8858; Experimental S ([2]; averaged over triplicate): 4.4033; Experimental Log S ([2]; single replicate of triplicate): -1.8647 and -1.9030 and -1.8898; Experimental S ([2]; single replicate of triplicate): 4.6200 and 4.2300 and 4.3600
4 | N[C@@H](Cc1ccc(I)cc1)C(=O)O [4‐Iodo‐L‐phenylalanine] |  |  | Experimental Class [2]: 5 (Very slightly soluble (5)); solubility at 48 h [2, 3]: 1.81 mM (≈ 526 µg/mL)
5 | Cc1cc(=O)oc2cc(O[C@@H]3O[C@H](CO)[C@@H](O)[C@H](O)[C@H]3O)ccc12 [4‐methylumbelliferyl β‐D‐glucoside] |  |  | Experimental Class [2]: 4 (Slightly soluble (4)); Experimental Log S [2, 3]: −1.886 ± 0.016
6 | Nc1nc2c(c(=O)[nH]1)CC=N2 [7-Deazaguanine] |  |  | Experimental Log S ([2]; single replicate of triplicate): -1.8036 and -1.6879; Experimental S ([2]; single replicate of triplicate): 2.1200 and 2.3600 and 3.0800; solubility thermodynamic at 48 h ([2]; 25 °C, water): 2520 µg/mL (≈ 16.8 mM); solubility at 48 h [2, 4]: 16.6 mM (≈ 2490 µg/mL); solubility at 48 h [2, 5]: 14.1 mM (≈ 2120 µg/mL)
7 | Nc1nc2c(c(=O)[nH]1)CC=N2 [7‐Deazaguanine] |  |  | Experimental Class [2]: 4 (Slightly soluble (4)); solubility at 48 h [2, 3]: 16.6 mM (≈ 2490 µg/mL)
8 | CC1=NS(=O)(=O)c2cc(Cl)ccc2N1 [CC1=NS(=O)(=O)c2cc(Cl)ccc2N1] | -3.43 | 6 (Practically insoluble or insoluble (6)) | 
9 | CC(=O)Nc1nnc(S(N)(=O)=O)s1 [CC(=O)Nc1nnc(S(N)(=O)=O)s1] | -2.38 | 5 (Very slightly soluble (5)) | 
10 | CC(=O)Oc1ccccc1C(=O)O [CC(=O)Oc1ccccc1C(=O)O] | -1.67 | 4 (Slightly soluble (4)) | 
11 | CC(C(=O)O)c1ccc(-c2ccccc2)c(F)c1 (centres unmarked) [CC(C(=O)O)c1ccc(-c2ccccc2)c(F)c1] | -4.34 | 6 (Practically insoluble or insoluble (6)) | 
12 | CC(C(=O)O)c1ccc(N2Cc3ccccc3C2=O)cc1 (centres unmarked) [CC(C(=O)O)c1ccc(N2Cc3ccccc3C2=O)cc1] | -4.65 | 6 (Practically insoluble or insoluble (6)) | 
13 | CC(C)NCC(O)COc1cccc2[nH]ccc12 (centres unmarked) [CC(C)NCC(O)COc1cccc2[nH]ccc12] | -3.75 | 6 (Practically insoluble or insoluble (6)) | 
14 | CC(CN1c2ccccc2Sc2ccccc21)N(C)C (centres unmarked) [CC(CN1c2ccccc2Sc2ccccc21)N(C)C] | -4.38 | 6 (Practically insoluble or insoluble (6)) | 
15 | CCC1(c2ccccc2)C(=O)NCNC1=O [CCC1(c2ccccc2)C(=O)NCNC1=O] | -2.53 | 5 (Very slightly soluble (5)) | 
16 | CCC(C)C1(CC)C(=O)NC(=O)NC1=O (centres unmarked) [CCC(C)C1(CC)C(=O)NC(=O)NC1=O] | -2.22 | 4 (Slightly soluble (4)) | 
17 | CCCCC1C(=O)N(c2ccccc2)N(c2ccc(O)cc2)C1=O (centres unmarked) [CCCCC1C(=O)N(c2ccccc2)N(c2ccc(O)cc2)C1=O] | -3.94 | 6 (Practically insoluble or insoluble (6)) | 
18 | CCCCNc1ccc(C(=O)OCCN(C)C)cc1 [CCCCNc1ccc(C(=O)OCCN(C)C)cc1] | -3.11 | 5 (Very slightly soluble (5)) | 
19 | CCCN(CCC)S(=O)(=O)c1ccc(C(=O)O)cc1 [CCCN(CCC)S(=O)(=O)c1ccc(C(=O)O)cc1] | -4.83 | 6 (Practically insoluble or insoluble (6)) | 
20 | CCCNC(=O)NS(=O)(=O)c1ccc(Cl)cc1 [CCCNC(=O)NS(=O)(=O)c1ccc(Cl)cc1] | -3.17 | 5 (Very slightly soluble (5)) | 
21 | CCOc1ccc2nc(S(N)(=O)=O)sc2c1 [CCOc1ccc2nc(S(N)(=O)=O)sc2c1] | -3.76 | 6 (Practically insoluble or insoluble (6)) | 

Row | Structure (SMILES) | LogS(mol/L) [1] [mol/L] | Class [1] | also measured
22 | CN(C)CCCN1c2ccccc2Sc2ccccc21 [CN(C)CCCN1c2ccccc2Sc2ccccc21] | -4.45 | 6 (Practically insoluble or insoluble (6)) | 
23 | COC(=O)Nc1nc2ccccc2[nH]1 [COC(=O)Nc1nc2ccccc2[nH]1] | -4.56 | 6 (Practically insoluble or insoluble (6)) | 
24 | COc1ccc2cc(CCC(C)=O)ccc2c1 [COc1ccc2cc(CCC(C)=O)ccc2c1] | -4.4 | 6 (Practically insoluble or insoluble (6)) | 
25 | COc1ccc(Cc2nccc3cc(OC)c(OC)cc23)cc1OC [COc1ccc(Cc2nccc3cc(OC)c(OC)cc23)cc1OC] | -4.33 | 6 (Practically insoluble or insoluble (6)) | 
26 | Cc1ccnc2c1NC(=O)c1cccnc1N2C1CC1 [Cc1ccnc2c1NC(=O)c1cccnc1N2C1CC1] |  | 5 (Very slightly soluble (5)) | 
27 | OC[C@H]1O[C@@H](n2cnc3c(O)ncnc32)C[C@@H]1O [Deoxyinosine] |  |  | Experimental Class [2]: 3 (Sparingly soluble (3)); Experimental Log S ([2]; single replicate of triplicate): -1.3814 and -1.3992; Experimental S ([2]; single replicate of triplicate): 10.1800 and 10.4800 and 10.0600; solubility thermodynamic at 48 h ([2]; 25 °C, water): 10200 µg/mL (≈ 40.6 mM); solubility at 48 h [2, 4]: 40.6 mM (≈ 10200 µg/mL); solubility at 48 h [2, 3]: 40.6 mM (≈ 10200 µg/mL); solubility at 48 h [2, 5]: 40.4 mM (≈ 10200 µg/mL)
28 | OC[C@@H](O)CN1CCN(c2ccccc2)CC1 [Levodropropizine, reference compound] |  |  | Experimental Class [2]: 2 (Soluble (2)); Experimental Log S ([2]; single replicate of triplicate): -0.8427; Experimental S ([2]; single replicate of triplicate): 34.3300 and 33.9500; solubility thermodynamic at 48 h ([2]; 25 °C, water): 34200 µg/mL (≈ 145 mM); solubility at 48 h [2, 4]: 145 mM (≈ 34200 µg/mL); solubility at 48 h [2, 3]: 145 mM (≈ 34200 µg/mL); solubility at 48 h [2, 5]: 145 mM (≈ 34300 µg/mL)
29 | NCC(CC(=O)O)c1ccc(Cl)cc1 (centres unmarked) [NCC(CC(=O)O)c1ccc(Cl)cc1] | -1.78 | 4 (Slightly soluble (4)) | 
30 | N[C@@H](Cc1ccc(O)c(O)c1)C(=O)O [N[C@@H](Cc1ccc(O)c(O)c1)C(=O)O] | -1.76 | 4 (Slightly soluble (4)) | 
31 | Nc1ccc(N=Nc2ccccc2)c(N)n1 [Nc1ccc(N=Nc2ccccc2)c(N)n1] | -4.02 | 6 (Practically insoluble or insoluble (6)) | 
32 | Nc1ccc(S(=O)(=O)Nc2nccs2)cc1 [Nc1ccc(S(=O)(=O)Nc2nccs2)cc1] | -2.62 | 5 (Very slightly soluble (5)) | 
33 | Nc1nc(N)c2nc(-c3ccccc3)c(N)nc2n1 [Nc1nc(N)c2nc(-c3ccccc3)c(N)nc2n1] | -4.11 | 6 (Practically insoluble or insoluble (6)) | 
34 | O=C1CCc2cc(OCCCCc3nnnn3C3CCCCC3)ccc2N1 [O=C1CCc2cc(OCCCCc3nnnn3C3CCCCC3)ccc2N1] | -4.93 | 6 (Practically insoluble or insoluble (6)) | 
35 | O=C1CN=C(c2ccccn2)c2cc(Br)ccc2N1 [O=C1CN=C(c2ccccn2)c2cc(Br)ccc2N1] | -3.39 | 5 (Very slightly soluble (5)) | 
36 | O=C1Nc2ccc(Cl)cc2C(c2ccccc2)=NC1O (centres unmarked) [O=C1Nc2ccc(Cl)cc2C(c2ccccc2)=NC1O] |  | 6 (Practically insoluble or insoluble (6)) | 
37 | O=c1[nH]c(=O)c2[nH]cnc2[nH]1 [O=c1[nH]c(=O)c2[nH]cnc2[nH]1] |  | 6 (Practically insoluble or insoluble (6)) | 
38 | Oc1ccc(/C=C/c2cc(O)cc(O)c2)cc1 [Oc1ccc(/C=C/c2cc(O)cc(O)c2)cc1] |  | 6 (Practically insoluble or insoluble (6)) | 
39 | CC(=O)SCC(Cc1ccccc1)C(=O)NCC(=O)OCc1ccccc1 (centres unmarked) [Racecadotril, reference compound] |  |  | Experimental Class [2]: 6 (Practically insoluble or insoluble (6)); Experimental Log S ([2]; single replicate of triplicate): -4.1710 and -3.8226 and -3.9232; Experimental S ([2]; single replicate of triplicate): 0.0260 and 0.0580 and 0.0460; solubility thermodynamic at 48 h ([2]; 25 °C, water): 43.3 µg/mL (≈ 0.112 mM); solubility at 48 h [2, 4]: 0.107 mM (≈ 41.1 µg/mL); solubility at 48 h [2, 3]: 0.107 mM (≈ 41.1 µg/mL)
40 | c1ccc2c(c1)[nH]c1ccccc12 [c1ccc2c(c1)[nH]c1ccccc12] | -5.19 | 6 (Practically insoluble or insoluble (6)) | 
41 | c1ccc(Nc2ccccc2)cc1 [c1ccc(Nc2ccccc2)cc1] |  | 6 (Practically insoluble or insoluble (6)) | 
